Data from patent US9834571B2, “Compounds for inhibiting cell proliferation in EGFR-driven cancers” (ARIAD Pharmaceuticals, Inc., priority 2012, dated 2017).

Experiments:
[1] = biological target: T1, BaF3 cells expressing the target EGFR mutations (Homo sapiens, UniProt P00533, T790M, cells depend on it, form not given); test: Antiproliferative activity (MTT) against BaF3 cells expressing the target EGFR mutations; type: cell-based; settings: BAF3 EGFR DEL T790M PURO POOL cells, read-out: IC50, BAF3 EGFR DEL T790M PURO POOL
T1 construct: IC50, BAF3 EGFR DEL T790M PURO POOL; other: BAF3 EGFR DEL T790M PURO POOL cells, MTT; other: BAF3 EGFR DEL T790M PURO POOL cells; MTT
How it was run: (§1)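 Antiproliferative effect was measured by MTT in BaF3 cells engineered to express mutant EGFR, with wildtype-EGFR BaF3 cells as the control line.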

[2] = biological target: T2, BaF3 cells expressing the target EGFR mutations (Homo sapiens, UniProt P00533, T790M/L858R, cells depend on it); test: as above; type: cell-based; settings: BAF3 EGFR L858R-T790M PURO POOL cells, read-out: IC50, BAF3 EGFR L858R-T790M PURO POOL
T2 construct: IC50, BAF3 EGFR L858R-T790M PURO POOL; other: BAF3 EGFR L858R-T790M PURO POOL cells, MTT; IC50, BAF3 EGFR L858R-T790M PURO POOL; other: BAF3 EGFR L858R-T790M PURO POOL cells; MTT
How it was run: as §1

[3] = biological target: EGFR L858R/T790M (Homo sapiens, UniProt P00533, L858R/T790M); test: Kinase inhibitory activity against EGFR bearing the L858R/T790M double mutation; type: biochemical; settings: 10 pt curves, 3 μM top concentration, 10 μM ATP; read-out: IC50 for kinase inhibition, EGFR L858R T790M
How it was run: (§2)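 Kinase inhibition was measured against native human EGFR and the L858R and L858R/T790M mutants. Compounds were run as 10-point curves in singlicate from a 3 μM top concentration, with 10 μM ATP.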

[4] = biological target: human EGFR (native sequence) (Homo sapiens, UniProt P00533); test: Kinase inhibitory activity against human EGFR (native sequence); type: biochemical; settings: 10 pt curves, 3 μM top concentration, 10 μM ATP; read-out: IC50 for kinase inhibition, EGFR
How it was run: as §2

[5] = biological target: EGFR L858R (Homo sapiens, UniProt P00533, L858R); test: Kinase inhibitory activity against EGFR bearing the L858R mutation; type: biochemical; settings: 10 pt curves, 3 μM top concentration, 10 μM ATP; read-out: IC50 for kinase inhibition, EGFR L858R
How it was run: as §2

[6] = test system: BaF3 cells expressing wildtype EGFR; test: Antiproliferative activity (MTT) against control BaF3 cells expressing wildtype EGFR; type: cell-based; settings: Mus musculus, BAF3 parental cells
How it was run: as §1

Chain of human EGFR (native sequence) (P00533 25-1210): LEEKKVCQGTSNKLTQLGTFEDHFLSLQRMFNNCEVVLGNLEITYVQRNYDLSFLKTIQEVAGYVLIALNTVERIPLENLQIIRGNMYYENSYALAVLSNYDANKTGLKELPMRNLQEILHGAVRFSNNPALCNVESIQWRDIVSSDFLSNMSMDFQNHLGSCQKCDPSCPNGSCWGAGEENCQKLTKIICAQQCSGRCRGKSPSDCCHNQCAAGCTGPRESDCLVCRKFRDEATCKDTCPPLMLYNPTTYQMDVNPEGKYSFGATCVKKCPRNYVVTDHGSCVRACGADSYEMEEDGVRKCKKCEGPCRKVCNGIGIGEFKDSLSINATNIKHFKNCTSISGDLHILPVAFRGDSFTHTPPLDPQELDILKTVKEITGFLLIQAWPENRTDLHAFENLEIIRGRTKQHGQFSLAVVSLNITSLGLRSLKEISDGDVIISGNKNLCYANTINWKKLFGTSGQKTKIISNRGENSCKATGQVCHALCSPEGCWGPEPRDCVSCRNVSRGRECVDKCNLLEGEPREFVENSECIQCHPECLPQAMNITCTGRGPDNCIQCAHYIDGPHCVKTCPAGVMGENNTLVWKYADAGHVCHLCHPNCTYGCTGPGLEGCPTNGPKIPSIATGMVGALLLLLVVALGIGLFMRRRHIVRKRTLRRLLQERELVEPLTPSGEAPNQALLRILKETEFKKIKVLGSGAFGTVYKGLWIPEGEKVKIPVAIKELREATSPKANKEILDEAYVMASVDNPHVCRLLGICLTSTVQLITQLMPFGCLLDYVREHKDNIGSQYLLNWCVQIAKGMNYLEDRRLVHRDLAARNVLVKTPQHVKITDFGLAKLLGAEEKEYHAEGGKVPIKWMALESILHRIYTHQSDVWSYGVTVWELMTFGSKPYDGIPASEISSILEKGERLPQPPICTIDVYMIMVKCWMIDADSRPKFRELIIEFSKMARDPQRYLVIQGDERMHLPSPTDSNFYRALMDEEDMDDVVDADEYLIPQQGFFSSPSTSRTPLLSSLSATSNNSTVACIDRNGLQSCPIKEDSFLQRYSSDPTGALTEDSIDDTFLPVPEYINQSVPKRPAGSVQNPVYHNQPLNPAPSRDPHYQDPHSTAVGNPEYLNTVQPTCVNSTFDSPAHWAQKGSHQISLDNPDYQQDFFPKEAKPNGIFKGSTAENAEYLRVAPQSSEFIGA
T2 sequence (P00533 whole entry T790M/L858R): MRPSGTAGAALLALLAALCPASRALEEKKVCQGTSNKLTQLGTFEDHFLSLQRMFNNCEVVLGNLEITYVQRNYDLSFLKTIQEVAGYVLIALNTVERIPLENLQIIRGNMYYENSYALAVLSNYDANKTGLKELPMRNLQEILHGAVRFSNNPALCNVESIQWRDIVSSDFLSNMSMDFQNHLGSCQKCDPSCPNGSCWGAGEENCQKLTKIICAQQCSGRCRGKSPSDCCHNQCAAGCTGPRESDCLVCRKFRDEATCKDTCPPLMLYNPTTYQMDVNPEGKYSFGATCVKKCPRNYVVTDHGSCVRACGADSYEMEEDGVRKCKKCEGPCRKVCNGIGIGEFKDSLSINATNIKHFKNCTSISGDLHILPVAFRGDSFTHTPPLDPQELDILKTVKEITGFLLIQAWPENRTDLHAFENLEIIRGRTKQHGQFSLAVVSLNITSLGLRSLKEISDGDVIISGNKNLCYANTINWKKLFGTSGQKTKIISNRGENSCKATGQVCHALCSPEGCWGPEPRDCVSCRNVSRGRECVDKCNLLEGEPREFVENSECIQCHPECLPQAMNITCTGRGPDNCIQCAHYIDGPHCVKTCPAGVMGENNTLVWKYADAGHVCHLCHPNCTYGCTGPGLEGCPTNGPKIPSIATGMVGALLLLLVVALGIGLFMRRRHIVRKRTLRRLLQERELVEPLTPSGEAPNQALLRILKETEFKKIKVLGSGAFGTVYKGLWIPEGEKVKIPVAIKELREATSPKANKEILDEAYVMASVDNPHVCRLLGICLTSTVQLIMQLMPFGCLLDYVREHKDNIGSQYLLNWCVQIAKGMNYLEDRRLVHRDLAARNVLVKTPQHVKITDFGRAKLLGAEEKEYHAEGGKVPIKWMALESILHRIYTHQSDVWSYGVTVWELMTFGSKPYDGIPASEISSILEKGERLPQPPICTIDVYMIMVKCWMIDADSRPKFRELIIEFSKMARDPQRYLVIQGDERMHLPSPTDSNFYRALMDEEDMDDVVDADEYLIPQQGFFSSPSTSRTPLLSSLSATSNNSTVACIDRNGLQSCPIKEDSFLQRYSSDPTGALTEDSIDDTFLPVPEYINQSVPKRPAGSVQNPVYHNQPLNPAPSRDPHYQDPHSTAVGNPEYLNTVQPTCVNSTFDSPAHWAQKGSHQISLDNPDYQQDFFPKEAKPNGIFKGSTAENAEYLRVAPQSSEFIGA
Chain of EGFR L858R/T790M (P00533 25-1210 T790M/L858R): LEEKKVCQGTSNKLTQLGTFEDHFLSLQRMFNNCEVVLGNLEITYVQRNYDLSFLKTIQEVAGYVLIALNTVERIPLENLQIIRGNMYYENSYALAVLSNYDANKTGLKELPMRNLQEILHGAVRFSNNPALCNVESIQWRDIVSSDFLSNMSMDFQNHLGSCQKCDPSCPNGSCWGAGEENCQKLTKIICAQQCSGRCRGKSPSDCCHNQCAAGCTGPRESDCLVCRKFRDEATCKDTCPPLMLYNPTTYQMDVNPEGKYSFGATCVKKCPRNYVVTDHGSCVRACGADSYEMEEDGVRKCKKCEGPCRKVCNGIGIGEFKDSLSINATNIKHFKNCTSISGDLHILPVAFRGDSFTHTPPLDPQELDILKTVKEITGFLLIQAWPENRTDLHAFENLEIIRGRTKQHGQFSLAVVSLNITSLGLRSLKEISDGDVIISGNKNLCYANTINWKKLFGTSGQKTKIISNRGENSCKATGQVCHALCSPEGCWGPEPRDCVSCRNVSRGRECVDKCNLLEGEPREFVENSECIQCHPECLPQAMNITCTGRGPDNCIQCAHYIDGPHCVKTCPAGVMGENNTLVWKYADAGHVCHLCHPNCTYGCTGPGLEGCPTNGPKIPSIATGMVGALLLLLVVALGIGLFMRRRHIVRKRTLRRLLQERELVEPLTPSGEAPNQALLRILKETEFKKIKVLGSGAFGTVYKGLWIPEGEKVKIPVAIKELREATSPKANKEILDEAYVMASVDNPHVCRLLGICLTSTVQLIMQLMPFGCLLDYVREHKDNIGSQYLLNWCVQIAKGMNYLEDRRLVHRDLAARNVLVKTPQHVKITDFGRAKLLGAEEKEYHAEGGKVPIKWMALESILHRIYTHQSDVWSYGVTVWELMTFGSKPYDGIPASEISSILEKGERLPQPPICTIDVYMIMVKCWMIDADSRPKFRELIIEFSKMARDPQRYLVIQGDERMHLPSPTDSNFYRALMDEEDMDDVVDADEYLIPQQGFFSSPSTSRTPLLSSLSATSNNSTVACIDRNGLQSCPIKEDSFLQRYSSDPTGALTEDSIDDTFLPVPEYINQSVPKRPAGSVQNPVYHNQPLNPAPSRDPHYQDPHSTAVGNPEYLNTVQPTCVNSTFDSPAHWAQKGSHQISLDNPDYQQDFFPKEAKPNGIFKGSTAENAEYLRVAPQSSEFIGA
Chain of EGFR L858R (P00533 25-1210 L858R): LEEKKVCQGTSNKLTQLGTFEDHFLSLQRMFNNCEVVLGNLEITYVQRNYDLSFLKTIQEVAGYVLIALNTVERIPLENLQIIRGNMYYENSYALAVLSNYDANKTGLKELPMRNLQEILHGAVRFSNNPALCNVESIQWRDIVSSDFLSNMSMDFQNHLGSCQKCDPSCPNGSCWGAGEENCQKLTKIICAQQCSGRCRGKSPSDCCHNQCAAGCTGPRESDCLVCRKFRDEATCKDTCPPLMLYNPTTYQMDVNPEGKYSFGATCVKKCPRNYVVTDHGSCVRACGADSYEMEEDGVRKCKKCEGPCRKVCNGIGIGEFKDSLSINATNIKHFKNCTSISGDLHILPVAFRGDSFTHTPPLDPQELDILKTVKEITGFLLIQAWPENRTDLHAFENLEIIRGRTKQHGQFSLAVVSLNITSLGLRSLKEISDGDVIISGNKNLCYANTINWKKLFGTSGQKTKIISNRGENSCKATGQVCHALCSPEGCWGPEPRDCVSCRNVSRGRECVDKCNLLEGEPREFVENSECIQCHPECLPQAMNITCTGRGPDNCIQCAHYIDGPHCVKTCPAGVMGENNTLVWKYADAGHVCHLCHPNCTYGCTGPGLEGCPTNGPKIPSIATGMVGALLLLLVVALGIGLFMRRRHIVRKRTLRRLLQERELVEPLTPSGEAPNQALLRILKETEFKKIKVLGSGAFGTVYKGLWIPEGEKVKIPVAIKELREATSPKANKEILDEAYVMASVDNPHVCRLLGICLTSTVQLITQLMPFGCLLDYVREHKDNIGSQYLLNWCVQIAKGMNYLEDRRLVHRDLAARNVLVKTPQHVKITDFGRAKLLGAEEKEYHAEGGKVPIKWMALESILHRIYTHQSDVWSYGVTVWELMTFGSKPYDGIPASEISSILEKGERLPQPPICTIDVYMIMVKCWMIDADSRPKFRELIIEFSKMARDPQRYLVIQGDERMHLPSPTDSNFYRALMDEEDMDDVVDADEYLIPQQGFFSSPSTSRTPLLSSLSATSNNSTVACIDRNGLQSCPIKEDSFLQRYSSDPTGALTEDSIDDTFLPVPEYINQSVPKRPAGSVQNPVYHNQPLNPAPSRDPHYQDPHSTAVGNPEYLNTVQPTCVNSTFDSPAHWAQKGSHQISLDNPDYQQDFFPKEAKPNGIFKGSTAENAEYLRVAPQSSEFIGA

| Compound | GI50 [1] | GI50 [2] | IC50 [3] | IC50 [4] | IC50 [5] | IC50 [6] |
| --- | --- | --- | --- | --- | --- | --- |
| COc1ccc(NS(=O)(=O)CCl)cc1Nc1ncc(Cl)c(Nc2ccccc2P(C)(C)=O)n1 [Example 150, 1-chloro-N-(3-((5-chloro-4-((2-(dimethylphosphoryl)phenyl)amino)pyrimidin-2-yl)amino)-4-methoxyphenyl)methanesulfonamide] | ≥ 0.25 µM | ≥ 0.25 µM | ≥ 0.25 µM | ≥ 0.25 µM | ≥ 0.25 µM | ≥ 0.25 µM |
| C=CC(=O)Nc1cc(Nc2ncc(Cl)c(Nc3ccccc3P(C)(C)=O)n2)c(C)cc1C#CCN(C)C [Example 151, N-(5-((5-chloro-4-((2-(dimethylphosphoryl)phenyl)amino)pyrimidin-2-yl)amino)-2-(3-(dimethylamino)prop-1-yn-1-yl)-4-methylphenyl)acrylamide] | < 0.05 µM | < 0.05 µM | < 0.05 µM | < 0.05 µM | < 0.05 µM | ≥ 0.25 µM |
| C=CC(=O)Nc1cc(Nc2ncc(Cl)c(Nc3ccccc3P(C)(C)=O)n2)c(CC)cc1C#CCN(C)C [Example 152, N-(5-((5-chloro-4-((2-(dimethylphosphoryl)phenyl)amino)pyrimidin-2-yl)amino)-2-(3-(dimethylamino)prop-1-yn-1-yl)-4-ethylphenyl)acrylamide] | < 0.05 µM | < 0.05 µM | < 0.05 µM | < 0.05 µM | < 0.05 µM | ≥ 0.25 µM |
| C=CC(=O)Nc1cc(Nc2ncc(Cl)c(Nc3ccccc3S(=O)(=O)C(C)C)n2)c(OC)cc1C#CCN(C)C [Example 153, N-(5-((5-chloro-4-((2-(isopropylsulfonyl)phenyl)amino)pyrimidin-2-yl)amino)-2-(3-(dimethylamino)prop-1-yn-1-yl)-4-methoxyphenyl)acrylamide] | < 0.05 µM | < 0.05 µM | < 0.05 µM | < 0.05 µM | < 0.05 µM | ≥ 0.25 µM |
| C=CC(=O)Nc1cc(Nc2ncc(Cl)c(Nc3ccccc3P(C)(C)=O)n2)c(Cl)cc1C#CCN(C)C [Example 156, N-(4-chloro-5-((5-chloro-4-((2-(dimethylphosphoryl)phenyl)amino)pyrimidin-2-yl)amino)-2-(3-(dimethylamino)prop-1-yn-1-yl)phenyl)acrylamide] | < 0.05 µM | < 0.05 µM | < 0.05 µM | < 0.05 µM | < 0.05 µM | ≥ 0.25 µM |
| C=CC(=O)Nc1cc(Nc2ncc(Cl)c(Nc3ccccc3P(C)(C)=O)n2)c(OC)cc1C#CCN1CCCC1 [Example 157, N-(5-((5-chloro-4-((2-(dimethylphosphoryl)phenyl)amino)pyrimidin-2-yl)amino)-4-methoxy-2-(3-(pyrrolidin-1-yl)prop-1-yn-1-yl)phenyl)acrylamide] | < 0.05 µM | < 0.05 µM | < 0.05 µM | < 0.05 µM | < 0.05 µM | ≥ 0.25 µM |
| C=CC(=O)Nc1cc(Nc2ncc(Cl)c(Nc3ccccc3P(C)(C)=O)n2)c(OC)cc1C#CCN1CCN(C)CC1 [Example 159, N-(5-((5-chloro-4-((2-(dimethylphosphoryl)phenyl)amino)pyrimidin-2-yl)amino)-4-methoxy-2-(3-(4-methylpiperazin-1-yl)prop-1-yn-1-yl)phenyl)acrylamide] | < 0.05 µM | 0.101 to 0.25 µM | < 0.05 µM | < 0.05 µM | < 0.05 µM | ≥ 0.25 µM |
| C=CC(=O)Nc1ccc(OC)c(Nc2cc(Nc3ncccc3P(C)(C)=O)ncn2)c1 [Example 163, N-(3-((6-((3-(dimethylphosphoryl)pyridin-2-yl)amino)pyrimidin-4-yl)amino)-4-methoxyphenyl)acrylamide] | ≥ 0.25 µM | ≥ 0.25 µM | 0.101 to 0.25 µM | 0.05 to 0.1 µM | < 0.05 µM | ≥ 0.25 µM |
| C=CC(=O)Nc1ccc(OC)c(Nc2ncc(Cl)c(Nc3cnccc3P(C)(C)=O)n2)c1 [Example 164, N-(3-((5-chloro-4-((4-(dimethylphosphoryl)pyridin-3-yl)amino)pyrimidin-2-yl)amino)-4-methoxyphenyl)acrylamide] | 0.101 to 0.25 µM | ≥ 0.25 µM | < 0.05 µM | ≥ 0.25 µM | < 0.05 µM | ≥ 0.25 µM |
| C=CC(=O)Nc1cc(Nc2ncc(Cl)c(Nc3ccccc3P(C)(C)=O)n2)c(OC)cc1C#CCN1CCCCCC1 [Example 165, N-(2-(3-(azepan-1-yl)prop-1-yn-1-yl)-5-((5-chloro-4-((2-(dimethylphosphoryl)phenyl)amino)pyrimidin-2-yl)amino)-4-methoxyphenyl)acrylamide] | < 0.05 µM | < 0.05 µM | < 0.05 µM | < 0.05 µM | < 0.05 µM | ≥ 0.25 µM |

Now from value to compound, other results behind:

| GI50 [1] | GI50 [2] | IC50 [3] | IC50 [4] | IC50 [5] | Compound | IC50 [6] |
| --- | --- | --- | --- | --- | --- | --- |
| < 0.05 µM | < 0.05 µM | < 0.05 µM | < 0.05 µM | < 0.05 µM | C=CC(=O)Nc1cc(Nc2ncc(Cl)c(Nc3ccccc3P(C)(C)=O)n2)c(OC)cc1C#CC(C)(C)N(CC)CC [Example 154, N-(5-((5-chloro-4-((2-(dimethylphosphoryl)phenyl)amino)pyrimidin-2-yl)amino)-2-(3-(diethylamino)-3-methylbut-1-yn-1-yl)-4-methoxyphenyl)acrylamide] | ≥ 0.25 µM |
| < 0.05 µM | < 0.05 µM | < 0.05 µM | < 0.05 µM | < 0.05 µM | C=CC(=O)Nc1cc(Nc2ncc(Cl)c(Nc3ccccc3P(C)(C)=O)n2)c(OC)cc1C#CC(C)(C)N(C)C [Example 155, N-(5-((5-chloro-4-((2-(dimethylphosphoryl)phenyl)amino)pyrimidin-2-yl)amino)-2-(3-(dimethylamino)-3-methylbut-1-yn-1-yl)-4-methoxyphenyl)acrylamide] | ≥ 0.25 µM |
| < 0.05 µM | < 0.05 µM | < 0.05 µM | < 0.05 µM | < 0.05 µM | C=CC(=O)Nc1cc(Nc2ncc(Cl)c(Nc3ccccc3P(C)(C)=O)n2)c(OC)cc1C#CCN(C(C)C)C(C)C [Example 158, N-(5-((5-chloro-4-((2-(dimethylphosphoryl)phenyl)amino)pyrimidin-2-yl)amino)-2-(3-(diisopropylamino)prop-1-yn-1-yl)-4-methoxyphenyl)acrylamide] | ≥ 0.25 µM |
| < 0.05 µM | < 0.05 µM | < 0.05 µM | < 0.05 µM | < 0.05 µM | C=CC(=O)Nc1cc(Nc2ncc(Cl)c(Nc3ccccc3P(C)(C)=O)n2)c(OC)cc1C#CCNC [Example 160, N-(5-((5-chloro-4-((2-(dimethylphosphoryl)phenyl)amino)pyrimidin-2-yl)amino)-4-methoxy-2-(3-(methylamino)prop-1-yn-1-yl)phenyl)acrylamide] | ≥ 0.25 µM |
| < 0.05 µM | < 0.05 µM | < 0.05 µM | < 0.05 µM | < 0.05 µM | C=CC(=O)Nc1cc(Nc2ncc(Cl)c(Nc3ccccc3P(C)(C)=O)n2)c(OC)cc1C#CCN(C)CCOC [Example 161, N-(5-((5-chloro-4-((2-(dimethylphosphoryl)phenyl)amino)pyrimidin-2-yl)amino)-4-methoxy-2-(3-((2-methoxyethyl)(methyl)amino)prop-1-yn-1-yl)phenyl)acrylamide] | ≥ 0.25 µM |
| < 0.05 µM | < 0.05 µM | < 0.05 µM | < 0.05 µM | < 0.05 µM | C=CC(=O)Nc1cc(Nc2ncc(Cl)c(Nc3ccccc3P(C)(C)=O)n2)c(OC)cc1C#CCN(C)CC [Example 162, N-(5-((5-chloro-4-((2-(dimethylphosphoryl)phenyl)amino)pyrimidin-2-yl)amino)-2-(3-(ethyl(methyl)amino)prop-1-yn-1-yl)-4-methoxyphenyl)acrylamide] | ≥ 0.25 µM |
| < 0.05 µM | < 0.05 µM | < 0.05 µM | < 0.05 µM | < 0.05 µM | C=CC(=O)Nc1cc(Nc2ncc(Cl)c(Nc3ccccc3P(C)(C)=O)n2)c(OC)cc1C#CCN(C)C(C)C [Example 166, N-(5-((5-chloro-4-((2-(dimethylphosphoryl)phenyl)amino)pyrimidin-2-yl)amino)-2-(3-(isopropyl(methyl)amino)prop-1-yn-1-yl)-4-methoxyphenyl)acrylamide] | ≥ 0.25 µM |
